Laboratory results from patent US12077483B2, “Modified amine lipids” (Intellia Therapeutics, Inc., priority 2018, dated 2024).

Experiments:
mouse TTR = test: Serum TTR ELISA in mice after LNP delivery; format: in vivo; conditions: mouse serum, relative to TSS control of same experiment
Procedure: For studies measuring in vivo editing in liver, CD-1 female mice were dosed at 0.1 mpk unless otherwise noted. Animals were euthanized at 6 or 7 days by exsanguinationvia cardiac puncture under isoflourane anesthesia. Liver tissue was collected from each animal for DNA extraction and analysis. Blood was collected into serum separator tubes or into tubes containing buffered sodium citrate for plasma as described herein. Cohorts of mice were measured for editing by Next-Generation Sequencing (NGS).
Blood was collected and the serum was isolated as indicated. The total mouse TTR serum levels were determined using a Mouse Prealbumin (Transthyretin) ELISA Kit (Aviva Systems Biology, Cat. OKIA00111). Briefly, sera were serial diluted with kit sample diluent, e.g. to a final dilution of 10,000-fold and/or 2,500-fold. The diluted sample was then added to the ELISA plates and the assay was then carried out according to directions. Serum TTR data from treatment groups are expressed as a percentage of vehicle control levels.

[1] = RNA encapsulation efficiency of LNP (Ribogreen fluorescence assay); format: physicochemical; conditions: LNP with the compound as amine lipid
Procedure: A fluorescence-based assay (Ribogreen®, ThermoFisher Scientific) is used to determine total RNA concentration and free RNA. Encapsulation efficiency is calculated as (Total RNA—Free RNA)/Total RNA. LNP samples are diluted appropriately with 1× TE buffer containing 0.2% Triton-X 100 to determine total RNA or 1× TE buffer to determine free RNA. Standard curves are prepared by utilizing the starting RNA solution used to make the compositions and diluted in 1× TE buffer+/−0.2% Triton-X 100. Diluted RiboGreen® dye (according to the manufacturer's instructions) is then added to each of the standards and samples and allowed to incubate for approximately 10 minutes at room temperature, in the absence of light. A SpectraMax M5 Microplate Reader (Molecular Devices) is used to read the samples with excitation, auto cutoff and emission wavelengths set to 488 nm, 515 nm, and 525 nm respectively. Total RNA and free RNA are determined from the appropriate standard curves.
Encapsulation efficiency is calculated as (Total RNA−Free RNA)/Total RNA. The same procedure may be used for determining the encapsulation efficiency of a DNA-based cargo component. For single-strand DNA, Oligreen Dye may be used and for double-strand DNA, Picogreen Dye.

[2] = LNP average particle size and polydispersity by dynamic light scattering; format: physicochemical; conditions: LNP with the compound as amine lipid
From the text: The LNPs have a size of about 1 to about 1,000 nm, about 10 to about 500 nm, about 20 to about 500 nm, in a sub-embodiment about 50 to about 400 nm, in a sub-embodiment about 50 to about 300 nm, in a sub-embodiment about 50 to about 200 nm, and in a sub-embodiment about 50 to about 150 nm, and in another sub-embodiment about 60 to about 120 nm. Preferably, the LNPs have a size from about 60 nm to about 100 nm. The average sizes (diameters) of the fully formed LNP, may be measured by dynamic light scattering on a Malvern Zetasizer. The LNP sample is diluted in phosphate buffered saline (PBS) so that the count rate is approximately 200-400 kcps. The data is presented as a weighted average of the intensity measure.
In some embodiments, the LNPs have a size of about 75 to about 120 nm. In some embodiments, the LNPs have a size of about 75 to about 100 nm. Unless indicated otherwise, all sizes referred to herein are the average sizes (diameters) of the fully formed nanoparticles, as measured by dynamic light scattering on a Malvern Zetasizer. The nanoparticle sample is diluted in phosphate buffered saline (PBS) so that the count rate is approximately 200-400 kcps. The data is presented as a weighted-average of the intensity measure (Z-average diameter).
Dynamic Light Scattering (“DLS”) is used to characterize the polydispersity index (“pdi”) and size of the LNPs of the present disclosure. DLS measures the scattering of light that results from subjecting a sample to a light source. PDI, as determined from DLS measurements, represents the distribution of particle size (around the mean particle size) in a population, with a perfectly uniform population having a PDI of zero. Electropheretic light scattering is used to characterize the surface charge of the LNP at a specified pH. The surface charge, or the zeta potential, is a measure of the magnitude of electrostatic repulsion/attraction between particles in the LNP suspension. Asymmetric-Flow Field Flow Fractionation—Multi-Angle Light Scattering (AF4-MALS) is used to separate particles in the composition by hydrodynamic radius and then measure the molecular weights, hydrodynamic radii and root mean square radii of the fractionated particles. […] Nanoparticle tracking analysis (NTA, Malvern Nanosight) can be used to determine particle size distribution as well as particle concentration. LNP samples are diluted appropriately and injected onto a microscope slide. A camera records the scattered light as the particles are slowly infused through field of view. After the movie is captured, the Nanoparticle Tracking Analysis processes the movie by tracking pixels and calculating a diffusion coefficient. This diffusion coefficient can be translated into the hydrodynamic radius of the particle. The instrument also counts the number of individual particles counted in the analysis to give particle concentration.
LNP compositions are analyzed for average particle size, polydispersity index (pdi), total RNA content, encapsulation efficiency of RNA, and zeta potential. LNP compositions may be further characterized by lipid analysis, AF4-MALS, NTA, and/or cryo-EM. Average particle size and polydispersity are measured by dynamic light scattering (DLS) using a Malvern Zetasizer DLS instrument. LNP samples were diluted with PBS buffer prior to being measured by DLS. Z-average diameter which is an intensity-based measurement of average particle size was reported along with number average diameter and pdi. A Malvern Zetasizer instrument is also used to measure the zeta potential of the LNP. Samples are diluted 1:17 (50 μL into 800 μL) in 0.1×PBS, pH 7.4 prior to measurement.

[3] = pKa of amine lipid by TNS fluorescence; format: physicochemical; conditions: probe TNS (6-(p-toluidino)-2-naphthalenesulfonic acid sodium salt), unformulated amine lipid in ethanol, sodium phosphate buffers -9.0
Procedure: The pKa of each amine lipid was determined according to the method in Jayaraman, et al. (Angewandte Chemie, 2012) with the following adaptations. The pKa was determined for unformulated amine lipid in ethanol. Lipid stock solutions (2.94 mM) were diluted into Sodium Phosphate Buffers (0.1 M, Boston Bioproducts) of different pH (pH-range: 4.5-9.0) yielding a final lipid concentration of approx. 100 μM. The test samples were supplemented with TNS {6-(p-Toluidino)-2-naphthalenesulfonic acid sodium salt}, incubated and the fluorescence intensity was measured using excitation and emission wavelengths of 321 nm and 448 nm, respectively. The recorded data were normalized and the respective pKa values were derived from sigmoidal fitting.

[4] = Expt. 1, composition ratio (mol %) 50/9/38/3 for Cmpnd 49, 50/10/38.5/1.5 for the others
[5] = Expt. 5, composition ratio (mol %) 50/10/38.5/1.5
[6] = Expt. 9, composition ratio (mol %) 50/9/38/3 for Cmpnd 49, 50/10/38.5/1.5 for the others
[7] = Expt. 8, composition ratio (mol %) 50/9/38/3 for Cmpnd 49, 50/10/38.5/1.5 for the others
[8] = Expt. 10, composition ratio (mol %) 50/9/38/3 for Cmpnd 49, 50/10/38.5/1.5 for the others
[9] = Expt. 6, composition ratio (mol %) 50/9/38/3 for Cmpnd 49, 50/10/38.5/1.5 for the others

Encapsulation (%) [1, 4] | Num Ave Size (nm) [2, 4] | PDI [2, 4] | Z-Ave Size (nm) [2, 4] | pKa [3] | Structure (SMILES) | Serum TTR % TSS (mouse TTR; dose 0.1 mpk) | Serum TTR % TSS (mouse TTR; dose 0.03 mpk) | other results
 |  |  |  | 6.52 | CCCCC/C=C\C/C=C\CCCCCCCC(=O)OCC(COC(=O)CCCCCCC/C=C\C/C=C\CCCCC)OC(=O)CCC(CC/C=C\CCCCC)OC(=O)NCCN1CCCC1 (stereo not shown) [Compound 108, 2-(((Z)-4-(((2-(pyrrolidin-1-yl)ethyl)carbamoyl)oxy)tridec-7-enoyl)oxy)propane-1,3-diyl (9Z,9′Z,12Z,12′Z)-bis(octadeca-9,12-dienoate)] |  | 57.12 % TSS | Encapsulation (%) [1, 6]: 99%; Num Ave Size (nm) [2, 6]: 73 nm; PDI [2, 6]: 0.03; Z-Ave Size (nm) [2, 6]: 89 nm
 |  |  |  | 5.8 | CCCCC/C=C\C/C=C\CCCCCCCC(=O)OCC(COC(=O)CCCCCCC/C=C\C/C=C\CCCCC)OC(=O)CCC(CCCCCCCC)OC(=O)NCCN1CCCCC1 (stereo not shown) [Compound 94, 2-((4-(((2-(piperidin-1-yl)ethyl)carbamoyl)oxy)dodecanoyl)oxy)propane-1,3-diyl (9Z,9′Z,12Z,12′Z)-bis(octadeca-9,12-dienoate)] |  |  | Encapsulation (%) [1, 8]: 98%; Num Ave Size (nm) [2, 8]: 53 nm; PDI [2, 8]: 0.06; Z-Ave Size (nm) [2, 8]: 70 nm

More lines, now with the values behind:

Structure (SMILES) | Encapsulation (%) [1, 4] | Num Ave Size (nm) [2, 4] | PDI [2, 4] | Z-Ave Size (nm) [2, 4] | pKa [3] | Serum TTR % TSS (mouse TTR; dose 0.1 mpk) | Serum TTR % TSS (mouse TTR; dose 0.03 mpk) | other results
CCCCC/C=C\C/C=C\CCCCCCCC(=O)OCC(COC(=O)CCCCCCC/C=C\C/C=C\CCCCC)COC(=O)CC(CCCCCCCC)OC(=O)NCCN(C)CC (stereo not shown) [Compound 53, 2-(11-methyl-5-octyl-3,7-dioxo-2,6-dioxa-8,11-diazatridecyl)propane-1,3-diyl (9Z,9′Z,12Z,12′Z)-bis(octadeca-9,12-dienoate)] | 99% | 75.76 nm | 0.05 | 92.99 nm | 6.29 | 13.97 % TSS |  | 
CCCCC/C=C\C/C=C\CCCCCCCC(=O)OCC(COC(=O)CCCCCCC/C=C\C/C=C\CCCCC)OC(=O)CCC(CCCCCC)OC(=O)NC(C)(C)CN1CCCC1 (stereo not shown) [Compound 79, 2-((4-(((2-methyl-1-(pyrrolidin-1-yl)propan-2-yl)carbamoyl)oxy)decanoyl)oxy)propane-1,3-diyl (9Z,9′Z,12Z,12′Z)-bis(octadeca-9,12-dienoate)] |  |  |  |  | 4.96 | 100.4 % TSS | 86.9 % TSS | Encapsulation (%) [1, 5]: 98%; Num Ave Size (nm) [2, 5]: 55 nm; PDI [2, 5]: 0.09; Z-Ave Size (nm) [2, 5]: 75.00 nm
CCCCCCCCCCOC(=O)CCCCCCCC(=O)OCC(COC(=O)CCCCCCCC(=O)OCCCCCCCCCC)OC(=O)CCC(CCCCCCCC)OC(=O)NCCN(C)CC (stereo not shown) [Compound 57, 9,9′-didecyl O′1,O1-(2-((4-(((2-(ethyl(methyl)amino)ethyl)carbamoyl)oxy)dodecanoyl)oxy)propane-1,3-diyl) di(nonanedioate)] | 98% | 83.73 nm | 0.02 | 100.40 nm | 6.18 | 24.58 % TSS |  | 
CCCCC/C=C\C/C=C\CCCCCCCC(=O)OCC(COC(=O)CCCCCCC/C=C\C/C=C\CCCCC)OC(=O)CCC(CCCCCCC)OC(=O)NCC1CCCN1C (stereo not shown) [Compound 74, 2-((4-((((1-methylpyrrolidin-2-yl)methyl)carbamoyl)oxy)undecanoyl)oxy)propane-1,3-diyl (9Z,9′Z,12Z,12′Z)-bis(octadeca-9,12-dienoate)] |  |  |  |  | 6.44 | 110.06 % TSS | 100.54 % TSS | Encapsulation (%) [1, 7]: 99%; Num Ave Size (nm) [2, 7]: 74.58 nm; PDI [2, 7]: 0.024; Z-Ave Size (nm) [2, 7]: 92.14 nm
CCCCC/C=C\C/C=C\CCCCCCCC(=O)OCC(COC(=O)CCCCCCCC(=O)OCCCCCCCCCCC)OC(=O)CCC(CCCCCCCC)OC(=O)NCCN(C)CC (stereo not shown) [Compound 63, 1-(3-methyl-14-((((9Z,12Z)-octadeca-9,12-dienoyl)oxy)methyl)-9-octyl-7,12-dioxo-8,13-dioxa-3,6-diazapentadecan-15-yl) 9-undecyl nonanedioate] | 98% | 82.18 nm | 0.04 | 106.00 nm | 6.32 | 83.86 % TSS |  | 
CCCCC/C=C\C/C=C\CCCCCCCC(=O)OCC(COC(=O)CCCCCCC/C=C\C/C=C\CCCCC)OC(=O)CC[C@@H](CCCCCCCC)OC(=O)NCCN(C)CC [Compound 87, 2-(((R)-4-(((2-(ethyl(methyl)amino)ethyl)carbamoyl)oxy)dodecanoyl)oxy)propane-1,3-diyl (9Z,9′Z,12Z,12′Z)-bis(octadeca-9,12-dienoate)] |  |  |  |  |  | 33.33 % TSS | 80.21 % TSS | Encapsulation (%) [1, 9]: 98%; Num Ave Size (nm) [2, 9]: 63 nm; PDI [2, 9]: 0.06; Z-Ave Size (nm) [2, 9]: 83.00 nm
CCCCC/C=C\C/C=C\CCCCCCCC(=O)OCC(COC(=O)CCCCCCC/C=C\C/C=C\CCCCC)OC(=O)CC[C@H](CCCCCCCC)OC(=O)NCCN(C)CC [Compound 88, 2-(((S)-4-(((2-(ethyl(methyl)amino)ethyl)carbamoyl)oxy)dodecanoyl)oxy)propane-1,3-diyl (9Z,9′Z,12Z,12′Z)-bis(octadeca-9,12-dienoate)] |  |  |  |  |  | 33.45 % TSS | 75.06 % TSS | Encapsulation (%) [1, 9]: 98%; Num Ave Size (nm) [2, 9]: 73 nm; PDI [2, 9]: 0.02; Z-Ave Size (nm) [2, 9]: 88.00 nm
